Measurements taken from patent US9770451B2, “Composition including ATM inhibitor for reducing cellular senescence and use of the composition” (Samsung Electronics Co., Ltd., priority 2014, dated 2017).

Key:
Type in all cases: cell-based, human
[1] = system: progeria senescent fibroblasts (passage 17); test: Morphological change by microscopy; details: CP-466722 0.1 μM
Experimental: Progeria senescent fibroblasts (Hutchinson-Gilford Progeria Syndrome Skin Fibroblasts, Coriell Cell Repositories, AG03198 B) were inoculated into a DMEM medium containing 10% FBS, 100 units/ml of penicillin, and 100 μg/ml of streptomycin (wherein all antibiotics were purchased from Gibco-BRL, Grand Island, N.Y.), and then, cultured in a 5% CO2 incubator at a temperature of 37° C. When progeria senescent cells were grown to about 85% confluency in a plate, the progeria senescent cells were subjected to subculture. The early subculture was carried out at a split ratio of 1:4, and the late subculture was carried out at a split ratio of 1:2. When the cell doubling time was 14 days, the cells were considered to be progeria senescent fibroblasts (passages 16 to 17).
[…] The medium was replaced by a fresh medium containing KU-60019 (0.5 μM), once every 4 days. In addition, as a negative control group, the cells were cultured under the same conditions as described above, except that a medium used herein contained DMSO (0.05 (v/v) %).
In FIG. 10, a human dermal fibroblast was cultured in the presence of the ATM-kinase inhibitor KU-60019 (0.5 μM), and then, the cell shapes were photographed using a microscope. To provide a better view of the cells formed in a dashed square a, a dashed square a1 was randomly selected, and then, the cells are shown enlarged in the dashed square a1. […]

[2] = system: progeria senescent fibroblasts (passage 17); test: Lipofuscin autofluorescence (FACS); details: CP-466722 0.1 μM, 4 weeks
Experimental: In addition, the amounts of lipofuscin in the cells cultured as described above were measured. The progeria senescent fibroblasts (passage 17) that became senescent in the presence of KU-60019 (0.5 μM) were cultured in a CO2 incubator at a temperature of 37° C. for 4 weeks. The medium was replaced by a fresh medium containing KU-60019 (0.5 μM), once every 4 days. Lipofuscin is characterized by having autofluorescence capability, and in this regard, the cultured cells were irradiated with a wavelength of 488 nm by using a FACSCaliber (Beckton Dickinson), and then, measured with radiation emitted from a wavelength of 520 nm. The results were analyzed using Cell Quest 3.2 software (Beckton Dickinson). FIG. 11 is a graph showing lipofuscin measured in the cells that were cultured in the presence of KU-60019.
In addition, the amounts of lipofuscin in the cells cultured as described above were measured. […] Lipofuscin is characterized by having autofluorescence capability, and in this regard, the cultured cells were irradiated with a wavelength of 488 nm by using a FACSCaliber (Beckton Dickinson), and then, measured with radiation emitted from a wavelength of 520 nm. The results were analyzed using Cell Quest 3.2 software (Beckton Dickinson).

[3] = system: progeria senescent fibroblasts (passage 17); test: SA-β-galactosidase staining; details: CP-466722 0.1 μM, 4 weeks
[4] = system: senescent myoblasts (passage 11); test: ROS measurement (MitoSOX Red); details: CP-466722 0.1 μM
Experimental: (§1) ROS was measured according to the protocol of the manufacturer using a 0.2 μM MitoSOX™ Red reagent (Invitrogen, M36008). In detail, 2 μL of the reagent that was stored in a 1,000-fold concentration was added to a 2 ml medium sufficiently enough to cover the cultured cells that were attached to a coverslip. While being protected from light, the cells were further incubated at a temperature of 37° C. for 30 minutes. The cultured cells were irradiated with a wavelength of 520 nm by using a FACSCaliber (Beckton Dickinson), and then, measured with radiation emitted from a wavelength of 580 nm. The results were analyzed using Cell Quest 3.2 software (Beckton Dickinson).
as §1, with “by using an FACSCaliber (Beckton” for “by using a FACSCaliber (Beckton”

COc1cc2ncnc(-n3nc(-c4ccccn4)nc3N)c2cc1OC [CP-466722, 2-(6,7-dimethoxyquinazolin-4-yl)-5-(pyridin-2-yl)-2H-1,2,4-triazol-3-amine]
cell number and morphology vs DMSO control [1]: exist in a great number in the presence of CP-466722 and show a spindle form
amount of lipofuscin vs control [2]: significantly decreased
number of cells that express β-galactosidase vs DMSO control [3]: significantly decreased
amount of ROS (superoxide) vs control [4]: significantly decreased
